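Cultured in 96-well plates, cells were exposed to test compound for 48 hours across five concentrations. At the GI50, growth is halved.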 Activity calls are given as the source filed them. Cut-off read from the data, not from the text of the source: active = GI50 up to about 1.1 µM and inactive = higher.
Assays:
Assay in all cases: growth of human tumour cells (NCI), 48 h
COLO 205 = system: COLO 205
DU-145 = system: DU-145
EKVX = system: EKVX
HCT-116 = system: HCT-116
HCT-15 = system: HCT-15
HT-29 = system: HT-29
Hs-578T = system: Hs-578T
K562 = system: K562
MOLT-4 = system: MOLT-4
NCI-H460 = system: NCI-H460
PC-3 = system: PC-3
RPMI-8226 = system: RPMI-8226
SK-MEL-5 = system: SK-MEL-5
SK-OV-3 = system: SK-OV-3
SN12C = system: SN12C
TK-10 = system: TK-10
UACC-62 = system: UACC-62
UO-31 = system: UO-31

SMILES | GI50 (COLO 205) | GI50 (DU-145) | GI50 (EKVX) | GI50 (HCT-116) | GI50 (HCT-15) | GI50 (HT-29) | GI50 (Hs-578T) | GI50 (K562) | GI50 (MOLT-4) | GI50 (NCI-H460) | GI50 (PC-3) | GI50 (RPMI-8226) | GI50 (SK-MEL-5) | GI50 (SK-OV-3) | GI50 (SN12C) | GI50 (TK-10) | GI50 (UACC-62) | GI50 (UO-31)
CC(CC(=O)O)(CC(=O)O)C(=O)O | > 100 µM (inactive) | > 100 µM (inactive) | > 100 µM (inactive) | > 100 µM (inactive) | > 100 µM | > 100 µM (inactive) | > 100 µM (inactive) | > 100 µM (inactive) | > 100 µM (inactive) | > 100 µM (inactive) | > 100 µM (inactive) | > 100 µM (inactive) | > 100 µM (inactive) | > 100 µM (inactive) | > 100 µM (inactive) | > 100 µM (inactive) | > 100 µM (inactive) | > 100 µM (inactive)
O=NN1CCCS1(=O)=O | > 100 µM (inactive) | > 100 µM (inactive) | > 100 µM (inactive) | > 100 µM (inactive) | > 100 µM | > 100 µM (inactive) | > 100 µM (inactive) | > 100 µM (inactive) | > 100 µM (inactive) | > 100 µM (inactive) | > 100 µM (inactive) | > 100 µM (inactive) | > 100 µM (inactive) | > 100 µM (inactive) | > 100 µM (inactive) | > 100 µM (inactive) | > 100 µM (inactive) | 95.1 µM (inactive)
COc1ccc(-c2cc(O)c3cc(OC)c(OC)cc3n2)cc1OC | > 100 µM (inactive) | > 100 µM (inactive) | > 100 µM (inactive) | > 100 µM (inactive) | > 100 µM | > 100 µM (inactive) | 69.8 µM (inactive) | > 100 µM (inactive) | > 100 µM (inactive) | > 100 µM (inactive) | > 100 µM (inactive) | > 100 µM (inactive) | > 100 µM (inactive) | > 100 µM (inactive) | > 100 µM (inactive) | > 100 µM (inactive) | > 100 µM (inactive) | > 100 µM (inactive)
CO/C=C(/C(=O)OC)c1ccccc1Oc1c(F)c(F)c(F)c(F)c1F | 17.6 µM (inactive) | 33 µM (inactive) | 32.7 µM (inactive) | 22.9 µM (inactive) | 54.2 µM | 32.4 µM (inactive) | 25.8 µM (inactive) | 38.7 µM (inactive) | 7.69 µM (inactive) | 31.6 µM (inactive) | 34.8 µM (inactive) | 16.8 µM (inactive) | 20.9 µM (inactive) | 47.9 µM (inactive) | 42.9 µM (inactive) | 28.5 µM (inactive) | 21.9 µM (inactive) | 32.2 µM (inactive)
Cc1nnc(N)nc1C/C=C/C(Sc1ccc(Cl)cc1)c1ccccc1 (stereo not drawn) | 4.5 µM (inactive) | 8.02 µM (inactive) | 3.64 µM (inactive) | 3.59 µM (inactive) | 3.25 µM | 7.01 µM (inactive) | 3.27 µM (inactive) | 3.44 µM (inactive) | 2.56 µM (inactive) | 3.41 µM (inactive) | 3.01 µM (inactive) | 1.43 µM (inactive) | 4.35 µM (inactive) | 3.86 µM (inactive) | 4.41 µM (inactive) | 7.14 µM (inactive) | 2.74 µM (inactive) | 1.52 µM (inactive)
CC(=O)OC(OC(C)=O)c1ccc2ccc3cccc4ccc1c2c34 | 25.1 µM (inactive) | 21 µM (inactive) | 27.4 µM (inactive) | 22.4 µM (inactive) | 33.7 µM | 18 µM (inactive) | 16.1 µM (inactive) | 38.7 µM (inactive) | 39.4 µM (inactive) | 21.4 µM (inactive) | 28.6 µM (inactive) | 16.3 µM (inactive) | 18.2 µM (inactive) | 23 µM (inactive) | 26.7 µM (inactive) | 9.25 µM (inactive) | 12.7 µM (inactive) | 22.3 µM (inactive)
O=C(O)C12CC3(C(=O)O)CC(C(=O)O)(CC(C(=O)O)(C1)C3=O)C2=O | > 100 µM (inactive) | > 100 µM (inactive) | > 100 µM (inactive) | > 100 µM (inactive) | > 100 µM | > 100 µM (inactive) | > 100 µM (inactive) | > 100 µM (inactive) | > 100 µM (inactive) | > 100 µM (inactive) | > 100 µM (inactive) | > 100 µM (inactive) | > 100 µM (inactive) | > 100 µM (inactive) | > 100 µM (inactive) | > 100 µM (inactive) | > 100 µM (inactive) | > 100 µM (inactive)
CSc1nc(C)c(CCOC(C)=O)c(Cl)n1 | > 100 µM (inactive) | > 100 µM (inactive) | > 100 µM (inactive) | > 100 µM (inactive) | > 100 µM | > 100 µM (inactive) | > 100 µM (inactive) | > 100 µM (inactive) | > 100 µM (inactive) | > 100 µM (inactive) | > 100 µM (inactive) | > 100 µM (inactive) | > 100 µM (inactive) | > 100 µM (inactive) | > 100 µM (inactive) | > 100 µM (inactive) | > 100 µM (inactive) | > 100 µM (inactive)
CCOC(=O)C1C(=O)CC(O)(c2ccccc2)C(C(=O)OCC)C1c1ccc(OC)cc1 (stereo not drawn) | 12.8 µM (inactive) | 47.3 µM (inactive) | > 50.7 µM (inactive) | 4.94 µM (inactive) | 19.4 µM | 6.82 µM (inactive) | 0.695 µM (active) | 5.27 µM (inactive) | 17.5 µM (inactive) | 18.2 µM (inactive) | 16.4 µM (inactive) | 13.8 µM (inactive) | 19.1 µM (inactive) | 15.8 µM (inactive) | 40.7 µM (inactive) | 65.5 µM (inactive) | 21.9 µM (inactive) | 61.2 µM (inactive)
N#Cc1nn(C2OC(COC(=O)c3ccccc3)C(OC(=O)c3ccccc3)C2OC(=O)c2ccccc2)c2nc[nH]c(=O)c12 (stereo not drawn) | 27.4 µM (inactive) | 42.7 µM (inactive) | 55.7 µM (inactive) | 28.8 µM (inactive) | 40.1 µM | 36.2 µM (inactive) | 80.9 µM (inactive) | 35.7 µM (inactive) | 36.6 µM (inactive) | 30.4 µM (inactive) | 45.4 µM (inactive) | 39.4 µM (inactive) | 25.6 µM (inactive) | 5.57 µM (inactive) | 77.4 µM (inactive) | > 100 µM (inactive) | > 100 µM (inactive) | 56.2 µM (inactive)
CC(=O)OC(Cc1c(O)c2c(C)cccc2oc1=O)C(C)(C)O (stereo not drawn) | > 100 µM (inactive) | > 100 µM (inactive) | > 100 µM (inactive) | 53.6 µM (inactive) | > 100 µM | > 100 µM (inactive) | > 100 µM (inactive) | > 100 µM (inactive) | 46.8 µM (inactive) | > 100 µM (inactive) | 51.4 µM (inactive) | > 100 µM (inactive) | > 100 µM (inactive) | > 100 µM (inactive) | > 100 µM (inactive) | > 100 µM (inactive) | 77.4 µM (inactive) | > 100 µM (inactive)
Cc1ccc(S(=O)(=O)N/N=C/C(=C/c2ccc(Cl)cc2)CC(/C=N/NS(=O)(=O)c2ccc(C)cc2)=C\c2ccc(Cl)cc2)cc1 | 5 µM (inactive) | 25.8 µM (inactive) | 13 µM (inactive) | 4.6 µM (inactive) | 3.58 µM | 5.51 µM (inactive) | 3.68 µM (inactive) | 2.86 µM (inactive) | 2.55 µM (inactive) | 5.52 µM (inactive) | 4.02 µM (inactive) | 2.64 µM (inactive) | 4.03 µM (inactive) | 44.4 µM (inactive) | 7.08 µM (inactive) | 17.9 µM (inactive) | 5.08 µM (inactive) | 5.62 µM (inactive)
CC(C)(O)/C1=C/C=C/CCCCCCCCCC1 | > 100 µM (inactive) | > 100 µM (inactive) | > 100 µM (inactive) | > 100 µM (inactive) | > 100 µM | > 100 µM (inactive) | 1.19 µM (inactive) | 37.8 µM (inactive) | 28.1 µM (inactive) | > 100 µM (inactive) | 87.1 µM (inactive) | 33.3 µM (inactive) | 0.246 µM (active) | > 100 µM (inactive) | > 100 µM (inactive) | > 100 µM (inactive) | 90.2 µM (inactive) | 51.9 µM (inactive)
N#Cc1c(NC(=O)C(F)(F)F)sc2c3c(=O)c4ccccc4c(=O)c=3oc3ccccc3c12 | 14.7 µM (inactive) | 15.3 µM (inactive) | 24.6 µM (inactive) | 11.9 µM (inactive) | 13.1 µM | 19.2 µM (inactive) | 2.49 µM (inactive) | 19.8 µM (inactive) | 11.7 µM (inactive) | 17.6 µM (inactive) | 8.93 µM (inactive) | 12.7 µM (inactive) | 11.3 µM (inactive) | 29.4 µM (inactive) | 21.9 µM (inactive) | 33 µM (inactive) | 7.55 µM (inactive) | 19 µM (inactive)
CC(=O)N1NC(c2ccccc2)=CC(=O)/C1=C/C(=O)c1ccccc1 | > 100 µM (inactive) | > 100 µM (inactive) | 49.2 µM (inactive) | 62.2 µM (inactive) | 70.8 µM | > 100 µM (inactive) | 39.9 µM (inactive) | 56 µM (inactive) | 52.5 µM (inactive) | 71.1 µM (inactive) | > 100 µM (inactive) | 31.3 µM (inactive) | 47.8 µM (inactive) | > 100 µM (inactive) | 82.8 µM (inactive) | 48.8 µM (inactive) | 42.5 µM (inactive) | 98.4 µM (inactive)
O=C(N/N=C\c1ccc2ccccc2c1)Nc1ccc([N+](=O)[O-])cc1 | 21.6 µM (inactive) | 23.7 µM (inactive) | 47.3 µM (inactive) | 21.1 µM (inactive) | 16.8 µM | 21.3 µM (inactive) | 32.9 µM (inactive) | 9.84 µM (inactive) | 20 µM (inactive) | 24.4 µM (inactive) | 17.2 µM (inactive) | 15.1 µM (inactive) | 22.7 µM (inactive) | 18.9 µM (inactive) | 24.2 µM (inactive) | 18.9 µM (inactive) | 24.7 µM (inactive) | 23.2 µM (inactive)
